Test results from US11389385B2, “Resorcinol derivatives for their cosmetic use” (L'OREAL, priority 2017, dated 2022).
pIC50: −log10 of the molar value. Where two headings read alike, the source gives them in different places.

Tests used:
[1] = tested on: normal human melanocytes; assay: Depigmenting activity: reduction of melanin production in normal human melanocytes in vitro; assay type: cell-based; settings: Melanocyte, 72 h, 72 hours incubation, maximum concentration tested 200 μM, read-out: IC50 (concentration at which a 50% decrease in melanin synthesis is achieved)
Procedure: The measurement of the depigmenting activity (reduction of melanin production) of compounds of formula (I) was performed by assaying normal human melanocytes in vitro as follows.
First, normal human melanocytes are cultured and distributed in a multiwell plate. After 24 hours, the culture medium was replaced with a medium containing the compounds of formula (I) to be evaluated. The cells were incubated 72 hours before measurement of the final optical density, which measures the amount of melanin produced by the melanocytes. A dose effect was performed using a wide concentration range of the compounds evaluated. Thus, by making the concentrations and the melanin measurements correspond, it was possible to determine an IC50 in μM: concentration at which a 50% decrease in melanin synthesis is achieved.
Various test campaigns were conducted and the test results are collated in the tables below.

[2] = tested on: coculture of keratinocytes and melanocytes; assay: Coculture experiment: melanogenesis-modulating effect and cytotoxicity; assay type: cell-based; settings: for pIC50: melanin optical density, read-out: IC50 (concentration for which 50% of the melanin synthesis is inhibited)
Procedure: The melanogenesis-modulating effect of compound D was measured according to the method described in patent FR-A-2734825, and also in the article by R. Schmidt, P. Krien and M. Régnier, Anal. Biochem., 235(2), 113-18, 1996. This test is performed on a coculture of keratinocytes and melanocytes.
For the test compounds, the following were determined: • the cytotoxicity, • the inhibitory activity on melanin synthesis, by estimating the melanin optical density.
The IC50 values (concentration for which 50% of the melanin synthesis is inhibited) were determined.
The test was also performed with the compound 5-[(E)-2-(4-hydroxyphenyl)ethenyl]benzene-1,3-diol described in the prior art patent application JP01038009,

[3] = values marked *: different campaigns each time
[4] = coculture of keratinocytes and melanocytes

Structure (SMILES)	pIC50 [1, 3]	pIC50 ([1]; melanin by optical density)	cytotoxicity [2]	pIC50 [2, 4]	cytotoxicity [2, 4]
CC(Cc1ncc[nH]1)c1ccc(O)cc1O (stereo not shown) [Compound A, 4-[1-(1H-imidazol-2-yl)propan-2-yl]benzene-1,3-diol]	5.43				
CC(Cc1nccs1)c1ccc(O)cc1O (stereo not shown) [Compound B, 4-[1-(1,3-thiazol-2-yl)propan-2-yl]benzene-1,3-diol]	5.97	5.23			
CC(Cc1nc2ccccc2[nH]1)c1ccc(O)cc1O (stereo not shown) [Compound D, 4-[1-(1H-benzimidazol-2-yl)propan-2-yl]benzene-1,3-diol]	5.17	5.43	non-cytotoxic	5.86	
Oc1ccc(/C=C/c2cc(O)cc(O)c2)cc1 [Compound of the prior art, 5-[(E)-2-(4-hydroxyphenyl)ethenyl]benzene-1,3-diol, reference compound]		5.09		5.56	Non-cytotoxic
